Assay results published in article PMC5218480 (PLoS ONE, 2017).

Test system: MV-4-11 cells
Assay: Gene expression microarray analysis (Affymetrix PrimeView) and GSEA
Assay type: cell-based, human
Parameters: RFU PODN (11730768_x_at) / Fold change /veh PODN (11730768_x_at) / RFU LINC00158 (11744669_a_at) / Fold change /veh LINC00158 (11744669_a_at) / RFU DUSP10 (11751237_a_at) / Fold change /veh DUSP10 (11751237_a_at) / RFU ID3 (11757404_x_at) / Fold change /veh ID3 (11757404_x_at) / RFU PLEKHG5 (11737974_s_at) / Fold change /veh PLEKHG5 (11737974_s_at) / RFU LRRC4B (11730491_at) / Fold change /veh LRRC4B (11730491_at) / RFU GIMAP4 (11747438_a_at) / Fold change /veh GIMAP4 (11747438_a_at) / RFU KRT8 (11758183_x_at) / Fold change /veh KRT8 (11758183_x_at) / RFU CNN1 (11734310_a_at) / Fold change /veh CNN1 (11734310_a_at) / RFU VPS37D (11726825_at) / Fold change /veh VPS37D (11726825_at) / RFU C10orf10 (11716522_x_at) / Fold change /veh C10orf10 (11716522_x_at) / RFU KIR2DL2 /// KIR2DL4 /// KIR2DL5A /// KIR2DL5B /// KIR2DS1 /// KIR2DS2 /// KIR2DS3 /// KIR2DS4 /// KIR3DL3 /// KIR3DL3 /// KIR3DS1 (11738374_at) / Fold change /veh KIR2DL2 /// KIR2DL4 /// KIR2DL5A /// KIR2DL5B /// KIR2DS1 /// KIR2DS2 /// KIR2DS3 /// KIR2DS4 /// KIR3DL3 /// KIR3DL3 /// KIR3DS1 (11738374_at) / RFU C1QL1 (11718748_at) / Fold change /veh C1QL1 (11718748_at) / RFU TMPRSS4 (11747572_a_at) / Fold change /veh TMPRSS4 (11747572_a_at) / RFU HAMP (11756126_x_at) / Fold change /veh HAMP (11756126_x_at) / RFU RNFT2 (11725882_a_at) / Fold change /veh RNFT2 (11725882_a_at) / RFU NR4A2 (11747474_a_at) / Fold change /veh NR4A2 (11747474_a_at) / RFU ABCC12 (11746883_a_at) / Fold change /veh ABCC12 (11746883_a_at) / RFU TMEM136 (11760407_x_at) / Fold change /veh TMEM136 (11760407_x_at) / RFU CLDN22 /// WWC2 (11732394_at) / Fold change /veh CLDN22 /// WWC2 (11732394_at) / RFU HLA-DPB1 (11760878_x_at) / Fold change /veh HLA-DPB1 (11760878_x_at) / RFU SPINT1 (11716480_a_at) / Fold change /veh SPINT1 (11716480_a_at) / RFU GAP43 (11754022_s_at) / Fold change /veh GAP43 (11754022_s_at) / RFU A4GNT (11735810_at) / Fold change /veh A4GNT (11735810_at) / RFU PRB3 (11715151_x_at) / Fold change /veh PRB3 (11715151_x_at) / RFU TUBB4B (11761932_at) / Fold change /veh TUBB4B (11761932_at) / RFU CAPN14 (11732068_a_at) / Fold change /veh CAPN14 (11732068_a_at) / RFU TMCC2 (11721928_a_at) / Fold change /veh TMCC2 (11721928_a_at) / RFU IRGQ (11745062_a_at) / Fold change /veh IRGQ (11745062_a_at) / RFU FAM174B (11720279_a_at) / Fold change /veh FAM174B (11720279_a_at) / RFU TMPRSS4 (11748680_a_at) / Fold change /veh TMPRSS4 (11748680_a_at) / RFU FAM212B (11763350_a_at) / Fold change /veh FAM212B (11763350_a_at) / RFU PLEKHG5 (11743358_a_at) / Fold change /veh PLEKHG5 (11743358_a_at) / RFU ZSCAN30 (11745921_a_at) / Fold change /veh ZSCAN30 (11745921_a_at) / RFU CMKLR1 (11741424_a_at) / Fold change /veh CMKLR1 (11741424_a_at) / RFU LOC101060620 /// MAPK8IP1 (11723275_at) / Fold change /veh LOC101060620 /// MAPK8IP1 (11723275_at) / RFU SPTSSB (11747773_x_at) / Fold change /veh SPTSSB (11747773_x_at) / RFU PRSS12 (11739890_at) / Fold change /veh PRSS12 (11739890_at) / RFU BIN1 (11741810_x_at) / Fold change /veh BIN1 (11741810_x_at) / RFU WNT11 (11732464_a_at) / Fold change /veh WNT11 (11732464_a_at) / RFU C10orf10 (11716521_a_at) / Fold change /veh C10orf10 (11716521_a_at) / RFU C5orf56 (11738089_at) / Fold change /veh C5orf56 (11738089_at) / RFU CYB561 (11721691_x_at) / Fold change /veh CYB561 (11721691_x_at) / RFU ANKRD19P (11752326_a_at) / Fold change /veh ANKRD19P (11752326_a_at) / RFU OR2T12 /// OR2T33 /// OR2T8 (11738714_s_at) / Fold change /veh OR2T12 /// OR2T33 /// OR2T8 (11738714_s_at) / RFU VCAN (11748164_a_at) / Fold change /veh VCAN (11748164_a_at) / RFU JSRP1 (11732532_at) / Fold change /veh JSRP1 (11732532_at) / RFU KRTAP10-11 (11738290_x_at) / Fold change /veh KRTAP10-11 (11738290_x_at) / RFU MYO3A (11730013_a_at) / Fold change /veh MYO3A (11730013_a_at) / RFU EBF3 (11725865_a_at) / Fold change /veh EBF3 (11725865_a_at) / RFU CAMK2N1 (11719241_x_at) / Fold change /veh CAMK2N1 (11719241_x_at) / RFU C5orf56 (11738088_a_at) / Fold change /veh C5orf56 (11738088_a_at) / RFU OLFML3 (11715873_a_at) / Fold change /veh OLFML3 (11715873_a_at) / RFU LOC100653217 /// NTM (11731650_a_at) / Fold change /veh LOC100653217 /// NTM (11731650_a_at) / RFU MAPK11 (11762145_a_at) / Fold change /veh MAPK11 (11762145_a_at) / RFU FIZ1 (11724087_x_at) / Fold change /veh FIZ1 (11724087_x_at) / RFU OASL (11726364_x_at) / Fold change /veh OASL (11726364_x_at) / RFU SOX15 (11748057_x_at) / Fold change /veh SOX15 (11748057_x_at) / RFU CD79A (11719716_a_at) / Fold change /veh CD79A (11719716_a_at) / RFU HIST1H1D (11736915_at) / Fold change /veh HIST1H1D (11736915_at) / RFU CASKIN2 (11723855_a_at) / Fold change /veh CASKIN2 (11723855_a_at) / RFU LOC730098 (11760151_x_at) / Fold change /veh LOC730098 (11760151_x_at) / RFU OR4N2 (11742367_at) / Fold change /veh OR4N2 (11742367_at) / RFU PRRT2 (11749266_a_at) / Fold change /veh PRRT2 (11749266_a_at) / RFU SNX32 (11753110_a_at) / Fold change /veh SNX32 (11753110_a_at) / RFU CDHR5 (11726645_a_at) / Fold change /veh CDHR5 (11726645_a_at) / RFU RCAN1 (11760418_a_at) / Fold change /veh RCAN1 (11760418_a_at) / RFU FAM167A (11723789_a_at) / Fold change /veh FAM167A (11723789_a_at) / RFU FAM26E (11764081_at) / Fold change /veh FAM26E (11764081_at) / RFU ISYNA1 (11749810_s_at) / Fold change /veh ISYNA1 (11749810_s_at) / RFU ACY1 (11761880_at) / Fold change /veh ACY1 (11761880_at) / RFU 11764098_at / Fold change /veh 11764098_at / RFU SAMD14 (11745864_x_at) / Fold change /veh SAMD14 (11745864_x_at) / RFU NPB (11741838_a_at) / Fold change /veh NPB (11741838_a_at) / RFU TMPRSS6 (11731388_a_at) / Fold change /veh TMPRSS6 (11731388_a_at) / RFU KRTAP10-2 (11738614_at) / Fold change /veh KRTAP10-2 (11738614_at) / RFU ARHGAP8 /// PRR5-ARHGAP8 (11727945_x_at) / Fold change /veh ARHGAP8 /// PRR5-ARHGAP8 (11727945_x_at) / RFU KRTAP5-7 /// NADSYN1 (11734609_at) / Fold change /veh KRTAP5-7 /// NADSYN1 (11734609_at) / RFU RASL12 (11751679_a_at) / Fold change /veh RASL12 (11751679_a_at) / RFU CDKN2B (11736163_a_at) / Fold change /veh CDKN2B (11736163_a_at) / RFU PRF1 (11729649_at) / Fold change /veh PRF1 (11729649_at) / RFU, ZNF638 /// ZNF638-IT1 / Fold change vs veh, ZNF638 /// ZNF638-IT1 / RFU, PANK3 / Fold change vs veh, PANK3 / RFU, SH3YL1 / Fold change vs veh, SH3YL1 / RFU, ZEB2 / Fold change vs veh, ZEB2 / RFU, NRIP1 / Fold change vs veh, NRIP1 / RFU, PTTG1IP / Fold change vs veh, PTTG1IP / RFU, CAPN2 / Fold change vs veh, CAPN2 / RFU, MED14 / Fold change vs veh, MED14 / RFU, SNORA58 / Fold change vs veh, SNORA58 / RFU, C1orf63 / Fold change vs veh, C1orf63 / RFU, LRRFIP1 / Fold change vs veh, LRRFIP1 / RFU, NDUFAF7 / Fold change vs veh, NDUFAF7 / RFU, SLC12A2 / Fold change vs veh, SLC12A2 / RFU, IBTK / Fold change vs veh, IBTK / RFU, ESF1 / Fold change vs veh, ESF1 / Fold change vs veh, TMEM50B / RFU, TAOK1 / Fold change vs veh, TAOK1 / RFU, ACBD3 / Fold change vs veh, ACBD3 / RFU, TMA16 / Fold change vs veh, TMA16 / RFU, RWDD3 / Fold change vs veh, RWDD3 / RFU, BCAT1 / Fold change vs veh, BCAT1 / RFU, EDEM3 / Fold change vs veh, EDEM3 / RFU, TMEM33 / Fold change vs veh, TMEM33 / RFU, WDR75 / Fold change vs veh, WDR75 / RFU, AHCTF1 / Fold change vs veh, AHCTF1 / RFU, TFRC / Fold change vs veh, TFRC / RFU, ZDHHC17 / Fold change vs veh, ZDHHC17 / RFU, NOM1 / Fold change vs veh, NOM1 / RFU, ARL8B / Fold change vs veh, ARL8B / RFU, ZBTB11 / Fold change vs veh, ZBTB11 / RFU, TAMM41 / Fold change vs veh, TAMM41 / RFU, KIAA1704 /// LOC100996395 / Fold change vs veh, KIAA1704 /// LOC100996395 / RFU, ING1 / Fold change vs veh, ING1 / RFU, TRMT61B / Fold change vs veh, TRMT61B / RFU, FUBP3 / Fold change vs veh, FUBP3 / RFU, TP53 / Fold change vs veh, TP53 / RFU, TNKS2 / Fold change vs veh, TNKS2 / RFU, ZFP14 / Fold change vs veh, ZFP14 / RFU, ACTR2 / Fold change vs veh, ACTR2 / RFU, PPP3R1 / Fold change vs veh, PPP3R1 / RFU, PIK3R1 / Fold change vs veh, PIK3R1 / RFU, HNRNPA1 / Fold change vs veh, HNRNPA1 / RFU, RNF170 / Fold change vs veh, RNF170 / RFU, ZNF28 / Fold change vs veh, ZNF28 / RFU, RNGTT / Fold change vs veh, RNGTT / RFU, OGT / Fold change vs veh, OGT / RFU, BRD1 / Fold change vs veh, BRD1 / RFU, MARS / Fold change vs veh, MARS / RFU, ZNF655 / Fold change vs veh, ZNF655 / RFU, FAHD1 / Fold change vs veh, FAHD1 / RFU, BDP1 / Fold change vs veh, BDP1 / RFU, LRRCC1 / Fold change vs veh, LRRCC1 / RFU, ARID1A / Fold change vs veh, ARID1A / RFU, ZNF146 / Fold change vs veh, ZNF146 / RFU, ZNF330 / Fold change vs veh, ZNF330 / RFU, GPN3 / Fold change vs veh, GPN3 / RFU, C9orf123 / Fold change vs veh, C9orf123 / RFU, N4BP2L2 / Fold change vs veh, N4BP2L2 / RFU, ARFIP1 / Fold change vs veh, ARFIP1 / RFU, FAM179B / Fold change vs veh, FAM179B / RFU, BCL10 / Fold change vs veh, BCL10 / RFU, UHRF1BP1L / Fold change vs veh, UHRF1BP1L / RFU, BET1 / Fold change vs veh, BET1 / RFU, CNOT2 / Fold change vs veh, CNOT2 / RFU, ZNF268 / Fold change vs veh, ZNF268 / Fold change vs veh, ZNF507 / RFU, DGCR2 / Fold change vs veh, DGCR2 / RFU, WDSUB1 / Fold change vs veh, WDSUB1 / Fold change vs veh, HSP90B1 /// MIR3652 / RFU, ADSS / Fold change vs veh, ADSS / RFU, GK / Fold change vs veh, GK / RFU, ZNF148 / Fold change vs veh, ZNF148 / RFU, TAF9 / Fold change vs veh, TAF9 / RFU, SLC1A5 / Fold change vs veh, SLC1A5 / RFU, SLMO2 / Fold change vs veh, SLMO2 / RFU, ABCC4 / Fold change vs veh, ABCC4 / RFU, LOC101060439 /// RAP1B / Fold change vs veh, LOC101060439 /// RAP1B / RFU, RFX7 / Fold change vs veh, RFX7 / RFU, GTPBP10 / Fold change vs veh, GTPBP10 / RFU, CNEP1R1 / Fold change vs veh, CNEP1R1 / RFU, BIVM-ERCC5 /// ERCC5 / Fold change vs veh, BIVM-ERCC5 /// ERCC5 / RFU, ILF3 / Fold change vs veh, ILF3 / RFU 11762660_at / Fold change /veh 11762660_at / RFU VCAN (11757783_s_at) / Fold change /veh VCAN (11757783_s_at) / RFU DDX43 (11728927_at) / Fold change /veh DDX43 (11728927_at) / RFU KRT8 (11758188_x_at) / Fold change /veh KRT8 (11758188_x_at) / RFU NKD1 (11759106_at) / Fold change /veh NKD1 (11759106_at) / RFU SRD5A1 (11742802_a_at) / Fold change /veh SRD5A1 (11742802_a_at) / RFU TPSAB1 /// TPSB2 (11721975_s_at) / Fold change /veh TPSAB1 /// TPSB2 (11721975_s_at) / RFU GSTM3 (11746129_a_at) / Fold change /veh GSTM3 (11746129_a_at) / RFU IL23R (11737362_x_at) / Fold change /veh IL23R (11737362_x_at) / RFU TMEM51 (11727254_a_at) / Fold change /veh TMEM51 (11727254_a_at) / RFU PIWIL2 (11732686_x_at) / Fold change /veh PIWIL2 (11732686_x_at) / RFU ORM1 (11744905_x_at) / Fold change /veh ORM1 (11744905_x_at) / RFU CCDC152 (11743942_at) / Fold change /veh CCDC152 (11743942_at) / RFU ECM1 (11717891_a_at) / Fold change /veh ECM1 (11717891_a_at) / RFU IL23R (11748794_a_at) / Fold change /veh IL23R (11748794_a_at) / RFU TNFAIP8L3 (11732012_x_at) / Fold change /veh TNFAIP8L3 (11732012_x_at) / RFU MBOAT4 (11741988_at) / Fold change /veh MBOAT4 (11741988_at) / RFU 11764193_at / Fold change /veh 11764193_at / RFU TMEM53 (11763286_at) / Fold change /veh TMEM53 (11763286_at) / RFU MAGEB2 (11727129_at) / Fold change /veh MAGEB2 (11727129_at) / RFU TMEM200A (11744735_a_at) / Fold change /veh TMEM200A (11744735_a_at) / RFU CCDC152 (11751479_a_at) / Fold change /veh CCDC152 (11751479_a_at) / RFU FAM211A (11726209_a_at) / Fold change /veh FAM211A (11726209_a_at) / RFU RGS16 (11746705_a_at) / Fold change /veh RGS16 (11746705_a_at) / RFU VCAN (11755009_s_at) / Fold change /veh VCAN (11755009_s_at) / RFU RHOB (11743442_s_at) / Fold change /veh RHOB (11743442_s_at) / RFU RGS16 (11720943_a_at) / Fold change /veh RGS16 (11720943_a_at) / RFU RGS16 (11720944_at) / Fold change /veh RGS16 (11720944_at) / RFU, VPS4B / Fold change vs veh, VPS4B / RFU, CREB1 / Fold change vs veh, CREB1 / RFU, DNAJC13 / Fold change vs veh, DNAJC13 / RFU, GNAQ / Fold change vs veh, GNAQ / RFU, CDK5R1 / Fold change vs veh, CDK5R1 / RFU, ZRANB3 / Fold change vs veh, ZRANB3 / RFU, CUL4A / Fold change vs veh, CUL4A / RFU, CCNY / Fold change vs veh, CCNY / RFU, UFL1 / Fold change vs veh, UFL1 / RFU, COG3 / Fold change vs veh, COG3 / RFU, DIAPH2 / Fold change vs veh, DIAPH2 / RFU, SKA2 / Fold change vs veh, SKA2 / RFU, AFF3 / Fold change vs veh, AFF3 / RFU, LMF1 / Fold change vs veh, LMF1 / RFU, IPO11 / Fold change vs veh, IPO11 / RFU, DFFB / Fold change vs veh, DFFB / RFU, FOXP1 / Fold change vs veh, FOXP1 / RFU, CARD8 / Fold change vs veh, CARD8 / RFU, STRN3 / Fold change vs veh, STRN3 / RFU, ADK / Fold change vs veh, ADK / RFU, RASSF2 / Fold change vs veh, RASSF2 / RFU, WIPF1 / Fold change vs veh, WIPF1 / RFU, LARP1B / Fold change vs veh, LARP1B / RFU, RASA1 / Fold change vs veh, RASA1 / RFU, RB1 / Fold change vs veh, RB1 / RFU, PPFIA1 / Fold change vs veh, PPFIA1 / RFU, MAT2A / Fold change vs veh, MAT2A / RFU, CCT5 / Fold change vs veh, CCT5 / RFU, WDR92 / Fold change vs veh, WDR92 / RFU, CUX1 / Fold change vs veh, CUX1 / RFU, TTC7A / Fold change vs veh, TTC7A / RFU, TMEM135 / Fold change vs veh, TMEM135 / RFU, DEPTOR / Fold change vs veh, DEPTOR / RFU, CPM / Fold change vs veh, CPM / RFU, DNAJB6 / Fold change vs veh, DNAJB6 / RFU, CACNA2D3 / Fold change vs veh, CACNA2D3 / RFU, DTX4 / Fold change vs veh, DTX4 / RFU, TFCP2 / Fold change vs veh, TFCP2 / RFU, GMCL1 /// GMCL1P1 / Fold change vs veh, GMCL1 /// GMCL1P1 / RFU, AEBP2 / Fold change vs veh, AEBP2 / RFU, SNHG1 /// SNORD22 /// SNORD25 /// SNORD26 /// SNORD27 /// SNORD28 /// SNORD29 /// SNORD31 / Fold change vs veh, SNHG1 /// SNORD22 /// SNORD25 /// SNORD26 /// SNORD27 /// SNORD28 /// SNORD29 /// SNORD31 / Fold change (Aza/veh), C12orf56 (ProbeSet 11735607_a_at) / Fold change (ACY-1035/veh), C12orf56 (ProbeSet 11735607_a_at) / Fold change (Aza/veh), FGFR1OP (ProbeSet 11751329_s_at) / Fold change (ACY-1035/veh), FGFR1OP (ProbeSet 11751329_s_at) / Fold change (Aza/veh), VPS36 (ProbeSet 11739960_a_at) / Fold change (ACY-1035/veh), VPS36 (ProbeSet 11739960_a_at) / RFU SYPL1 (11715823_x_at) / Fold change /veh SYPL1 (11715823_x_at) / RFU IGFBP7 (11715501_s_at) / Fold change /veh IGFBP7 (11715501_s_at) / RFU REEP3 (11722064_at) / Fold change /veh REEP3 (11722064_at) / RFU IGLL1 (11728026_x_at) / Fold change /veh IGLL1 (11728026_x_at): dose or concentration left out as unconfirmed
Conditions: ProbeSet 11716865_a_at; LIST B

With `Nc1ccc(-c2cccs2)cc1NC(=O)c1ccc2c(c1)cc(C1CC1)n2CCN1CCOCC1` [ACY-1035] the “RFU, SLC1A5” value was 252.35 RFU.
